Where two headings read alike, the source gives them in different places.

The target of one data set is CYP1A2 (Homo sapiens (Human), UniProt P05177). The data set is classed as in vitro ADME. The note with it: microsomes. As for the experimental part:
(§1) Experimental purposes: To test the inhibitory effect of test compound on the activity of human liver microsomal cytochrome P450 isoenzymes (CYP1A2 and CYP3A4) (Corning, Co., Ltd.).
(§2) Experimental operation: Firstly, the test compound (10 mM) was subjected to gradient dilution to prepare a working solution (100×final concentration), and the concentration of the working solution was: 5, 1.5, 0.5, 0.15, 0.05, 0.015 and 0.005 mM, respectively, and the working solution of each positive inhibitor of P450 isoenzyme (CYP1A2 and CYP3A4) and its specific substrate mixture (5 in 1) were prepared; and then the human liver microsomes frozen in the −80° C. refrigerator were thawed on ice, and all the human liver microsomes were dissolved, diluted with PB, and a certain concentration of working solution (0.253 mg/mL) was prepared; 20 μL of substrate mixture was added to the reaction plate (20 μL of PB was added to the blank well), while 158 μL of human liver microsomal working solution was added to the reaction plate, and the reaction plate was placed on ice for later use; at this time, 2 μL of various concentrations of the test compound (N=1) and specific inhibitor (N=2) were added to the corresponding well, and the corresponding organic solvent was added to the non-inhibitor (test compound or positive inhibitor) group as a control group sample (a ratio of DMSO:MeOH in the test compound control sample was 1:1, a ratio of DMSO:MeOH in the positive control sample was 1:9); after pre-incubation in a water bath at 37° C. for 10 min, 20 μL of coenzyme factor (NADPH) solution was added to the reaction plate, and incubated in a water bath at 37° C. for 10 min; and 400 μL of cold acetonitrile solution (internal standard was 200 ng/mL tolbutamide and labetalol) was added to terminate the reaction; the reaction plate was placed on a shaker and shaked for 10 minutes; and then centrifuged at 4,000 rpm for 20 minutes; 200 μL of the supernatant was taken and added to 100 μL of water for sample dilution; finally the plate was sealed, shaked and shaked well, for LC/MS/MS detection.

Another data set concerns the target CYP3A4 (Homo sapiens (Human), UniProt P08684). Kind of data set: Cytochrome P450 isoenzyme inhibition, human liver microsomes. It is filed as in vitro ADME. The method, then:
as §1, §2
(In general: Microsomes from liver hold many membrane-bound enzymes, among them those of drug oxidation.)

A further data set concerns MCF-7 cells. The data set is described as follows: MCF-7 cell proliferation inhibition experiment. The following applies: Homo sapiens, MCF7, 144 h, 6 days incubation, CellTiter-Glo, read-out: Anti-cell proliferation activity of MCF-7. It is filed as cell-based. The method, then: (1) MCF-7 Cell Proliferation Inhibition Experiment:
EMEM culture medium was purchased from Wisent, and fetal bovine serum was purchased from Biosera, Promega CellTiter-Glo reagent. MCF-7 cell line was purchased from Cell Bank of Type Culture Collection of Chinese Academy of Sciences. Nivo5 multi-label analyzer (PerkinElmer).
MCF-7 cells were seeded in a white 384-well plate with 600 cells per well in every […] of the cell suspension. The cell plate was placed in a carbon dioxide incubator and cultured overnight.
The test compound was diluted to the 10th concentration with a multi-channel pipette, and the compound concentration was 1 mM, 400 μM, and 80 μM, and then diluted to the 10th concentration of 1 nM in turn, and a double-duplicate experiment was set-up. 47.5 μL of culture medium was added to the middle plate, then 2.5 μL of gradient dilution compound per well was transferred to the middle plate according to the corresponding position, and 5 μL of the mixture per well was mixed evenly and transferred to the cell plate. The cell plate was placed in a carbon dioxide incubator and cultured for 6 days.
After 6 days of co-incubation of the compound, the culture medium was removed by centrifugation, and 25 μL of Promega CellTiter-Glo reagent was added to each well of the cell plate, and incubated at room temperature for 10 minutes to stabilize the luminescence signal. PerkinElmer Nivo multi-marker analyzer reading was used. In the experiment, the reading of 2 μM positive reference compound H3B-6545(US20160347717A1) was used as a positive control to participate in data calculation.
The equation % Inhibition=((RFUCmpd−AVER(RFUNeg.ctrl))/((AVER(RFUPos.Ctrl)−AVER(RFUNeg.ctrl))×100% was used to convert the original data into inhibition rate, and the compound curve was fitted by log(inhibitor)vs. response-Variable slope of Graphpad Prism 5. The IC50 value was calculated by the software through the formula Y=Bottom+(Top−Bottom)/(1+10^((Log IC50−X)*HillSlope)).
For orientation: Cellular ATP, detected with luciferase, serves as a proxy for viable cell number.

For another data set, the target named is ERα (Homo sapiens (Human), UniProt P03372). The data set is described as follows: Degradation experiment of MCF-7 ERα (ELISA). The data set is classed as cell-based. The following applies: MCF-7 cell line, 4 hours incubation, total ERα ELISA; read-out: IC50 value of promoting ERα degradation. The text has this:
(2) Degradation Experiment of MCF-7 ERα Experimental Materials:
Phenol red-free MEM culture medium was purchased from Wisent, fetal bovine serum was purchased from Biosera, and Human Total ERα/NR3A1 ELISA kit was purchased from R&D. MCF-7 cell line was purchased from Cell Bank of Type Culture Collection of Chinese Academy of Sciences. Nivo5 multi-label analyzer (PerkinElmer).
MCF-7 cells were resuspended in culture medium (phenol red-free MEM+5% charcoal/dextran-treated fetal bovine serum+1% penicillin-streptomycin double antibody solution), and seeded in a clear 96-well cell culture plate with 80 μL per well containing 20,000 cells, and the cell culture plate was incubated overnight in a carbon dioxide incubator;
ELISA plate was coated with strips, human total estrogen receptor a capture antibody was diluted with 1×PBS with a final concentration of 1 μg/mL, and 100 μL of mixture was added to each well, and incubated overnight at 25° C.
Cell administration: The test compound was diluted to the 8th concentration with a multi-channel pipette, and the compound concentration was 20 μM and 4 μM, and then diluted to the 8th concentration of 0.256 nM in turn, and a double-duplicate experiment was set-up. 78 μL of culture medium was added to the middle plate, then 2 μL of gradient dilution compound per well was transferred to the middle plate according to the corresponding position, and 20 μL of the mixture per well was mixed evenly and transferred to the cell plate, and the final concentration of DMSO was 0.5%, and the mixture was incubated at 37° C. for 4 hours;
preparation of standard curve solution: 110 ng/mL of standard curve storage solution was 6-fold diluted with buffer (1×PBS containing 1 mM EDTA, 0.5% Triton X-100, pH 7.2 to 7.4) to obtain a solution with a concentration of 18.3 ng/mL, and then 91.5-fold diluted with buffer (1×PBS containing 1 mM EDTA, 0.5% Triton X-100, 1 M urea, pH 7.2 to 7.4) to obtain a solution with a concentration of 0.2 ng/mL, and 8-point gradient dilution was performed using buffer (1×PBS containing 1 mM EDTA, 0.5% Triton X-100, 1 M urea, pH 7.2 to 7.4) with a final concentration of […].
1×PBS was pre-cooled, and after the incubation of the compound, the supernatant was removed, and then the plate was washed with 250 μL of pre-cooled 1×PBS per well, then 30 µL of cell lysate per well (1×PBS containing 1 mM EDTA, 0.5% Triton X-100, 6 M urea, 1 mM active sodium orthovanadate, 2.5 mM sodium pyrophosphate, lx protease inhibitor, pH 7.2 to 7.4) was added, and lysed on ice for 15 minutes;
after cell was lysed in the cell plate, the cell lysate was 6-fold diluted with 150 μL of buffer (1×PBS containing 1 mM EDTA, 0.5% Triton X-100, pH 7.2 to 7.4) per well, and the mixture was mixed evenly by blowing with a multi-channel pipette, and 100 μL of solution per well was transferred to the ELISA plate;
the human total estrogen receptor a detection antibody stock solution (14.4 μg/mL) was 36-fold diluted with buffer (1×PBS containing 1% bovine serum albumin), and the final concentration of the detection antibody was 400 ng/mL, and 100 μL of the solution per well was transferred to the ELISA plate and incubated at 25° C. for 2 hours;
Data analysis: A, B, C and D in the four-parameter equation y=(A−D)/[1+(x/C)^B]+D were calculated according to the original data of the standard curve, wherein, y was the original OD450 value, x was the concentration of the corresponding point of the standard curve. According to the four-parameter equation and the OD450 reading of the original data of the sample, the concentration of ERα at the corresponding point was calculated. The equation (Sample−Min)/(Max−Min)×100% was used to convert the original data into inhibition rate, and the IC50 value could be obtained by curve fitting with four parameters (obtained by “log (inhibitor) vs. response—variable slope” mode in GraphPad Prism).
Max wells: Positive control wells reading at 100 nM Fulvestrant-treated cell wells […]
For orientation: In an ELISA, binding on a coated surface is turned into a signal by an enzyme label.

For data set [1] the following is noted: in vivo, cited from earlier work.
A further data set concerns breast cancer. The following applies: intramuscular injection; cited from earlier work.
A further data set has as its system rat uterus. The data set is described as follows: Uterine wet weight inhibition experiment in rat cubs. The data set is classed as in vivo. The following applies: 18-day-old female rat pups, oral, three consecutive days; compounds 25 mg/kg, Ethinylestradiol 0.1 mg/kg. As for the experimental part: The purpose of this experiment was to evaluate the effect of the compound of the present disclosure on uterine growth inhibition in 18 to 21-day-old female rat pups (provided by Beijing Vital River Laboratory Animal Technology Co., Ltd.). In this experiment, 18-day-old female rat pups were orally administered the compound of the present disclosure at a dose of 25 mg/kg for three consecutive days, and the control group was orally administered 0.1 mg/kg of Ethinylestradiol for three consecutive days, and the blank group was not given any drug except the corresponding solvent. Three days after the administration, the rats were sacrificed, and the weight of the rat uterus was weighed to observe the effect of the test drug on the growth inhibition of the rat uterus. Inhibition rate=100×[(VehicleEE−Cpd)/(VehicleEE−Vehicle)], VehicleEE was the wet weight of the rat uterus in the control group (administered 0.1 mg/kg of Ethinylestradiol orally); Cpd was the wet weight of the rat uterus in administration group; Vehicle was the wet weight of the rat uterus in the blank group.

Sequence of CYP3A4 (P08684 whole entry): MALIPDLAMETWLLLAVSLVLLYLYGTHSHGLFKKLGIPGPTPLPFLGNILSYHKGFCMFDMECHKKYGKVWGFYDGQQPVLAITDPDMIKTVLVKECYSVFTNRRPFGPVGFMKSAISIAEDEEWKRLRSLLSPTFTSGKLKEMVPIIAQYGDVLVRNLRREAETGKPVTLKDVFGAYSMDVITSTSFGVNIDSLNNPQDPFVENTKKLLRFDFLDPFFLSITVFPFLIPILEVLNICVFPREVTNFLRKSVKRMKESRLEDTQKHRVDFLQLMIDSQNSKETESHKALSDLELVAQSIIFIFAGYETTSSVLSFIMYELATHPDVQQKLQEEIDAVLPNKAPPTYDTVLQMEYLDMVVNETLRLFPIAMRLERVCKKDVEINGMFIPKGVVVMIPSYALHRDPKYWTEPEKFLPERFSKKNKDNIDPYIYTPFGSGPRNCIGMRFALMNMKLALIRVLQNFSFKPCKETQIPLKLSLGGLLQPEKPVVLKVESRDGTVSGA
Sequence of CYP1A2 (P05177 whole entry): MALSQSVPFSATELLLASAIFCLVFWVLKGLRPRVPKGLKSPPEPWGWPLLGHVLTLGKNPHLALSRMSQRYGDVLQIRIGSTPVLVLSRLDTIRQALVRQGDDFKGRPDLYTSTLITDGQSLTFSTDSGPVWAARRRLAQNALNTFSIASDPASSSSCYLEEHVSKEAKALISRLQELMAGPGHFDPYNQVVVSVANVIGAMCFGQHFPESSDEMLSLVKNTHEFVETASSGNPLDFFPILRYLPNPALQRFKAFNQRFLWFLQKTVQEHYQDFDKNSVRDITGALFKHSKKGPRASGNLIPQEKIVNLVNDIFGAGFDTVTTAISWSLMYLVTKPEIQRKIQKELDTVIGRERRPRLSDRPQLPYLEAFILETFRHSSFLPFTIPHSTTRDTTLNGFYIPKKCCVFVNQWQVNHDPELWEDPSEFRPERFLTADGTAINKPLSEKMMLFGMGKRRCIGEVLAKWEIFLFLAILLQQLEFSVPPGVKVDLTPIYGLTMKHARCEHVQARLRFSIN
Sequence of ERα (P03372 whole entry): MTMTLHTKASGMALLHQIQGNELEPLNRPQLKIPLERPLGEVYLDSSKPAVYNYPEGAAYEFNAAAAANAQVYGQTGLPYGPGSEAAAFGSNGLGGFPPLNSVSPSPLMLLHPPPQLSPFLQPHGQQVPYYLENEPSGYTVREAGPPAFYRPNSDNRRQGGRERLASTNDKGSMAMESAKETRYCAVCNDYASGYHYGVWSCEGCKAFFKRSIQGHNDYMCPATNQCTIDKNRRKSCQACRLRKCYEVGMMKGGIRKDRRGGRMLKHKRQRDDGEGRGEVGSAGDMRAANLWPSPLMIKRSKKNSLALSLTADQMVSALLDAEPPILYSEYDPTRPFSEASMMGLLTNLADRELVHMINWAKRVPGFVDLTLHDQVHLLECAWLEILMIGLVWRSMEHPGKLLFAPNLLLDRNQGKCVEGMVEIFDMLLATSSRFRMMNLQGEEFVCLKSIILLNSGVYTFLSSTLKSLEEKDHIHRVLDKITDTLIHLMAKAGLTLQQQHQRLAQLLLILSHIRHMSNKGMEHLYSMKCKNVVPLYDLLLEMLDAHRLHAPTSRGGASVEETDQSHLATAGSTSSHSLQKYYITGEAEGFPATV

Turning to `N#Cc1cc(C2=C(CC(F)(F)F)CCCc3c2ccc2[nH]nc(F)c32)ncc1NC1CN(CCCF)C1` [Compound 10], the IC50 is 47500 nM against CYP1A2 (human, 10 min) and 30800 nM against CYP3A4.
Consider `FCCCN1CC(Nc2cnc(C3=C(CC(F)(F)F)CCOc4c3ccc3[nH]ncc43)cn2)C1` [Compound 3], for which the IC50 is 1.37 nM with MCF-7 cells; over 50000 nM against CYP1A2 (human, 10 min); 13600 nM at CYP3A4. Besides, the DC50 at ERα worked out at 0.45 nM.
As to `OCCCC1=C(c2ccc(OC3CN(CCCF)C3)cc2)c2ccc3[nH]ncc3c2CCC1` [Formate of 1], in the data set with MCF-7 cells, the IC50 amounted to 0.42 nM. At ERα, the DC50 was determined as 0.25 nM.
For `FCCCN1CC(Nc2cnc(C3=C(CC(F)(F)F)CCCc4c3ccc3[nH]ncc43)nc2)C1` [Compound 7], the DC50 on ERα came out at 0.4 nM.
Turning to `FCCCN1CC(Nc2ncc(C3=C(CC(F)(F)F)CCCc4c3ccc3[nH]ncc43)cn2)C1` [Compound 4], on ERα, the DC50 worked out at 0.17 nM. Also, the IC50 at CYP1A2 (human, 10 min) is over 50000 nM; against CYP3A4, 11100 nM.
For `FCCCN1CC(Nc2ccc(C3=C(CC(F)(F)F)CCCc4c3ccc3[nH]ncc43)nc2)C1` [Compound 6], the IC50 in the data set on MCF-7 cells was found to be 0.31 nM. In addition, on ERα, the DC50 came out at 0.42 nM.
In the case of `C[C@]12CC[C@@H]3c4ccc(O)cc4C[C@@H](CCCCCCCCC[S+]([O-])CCCC(F)(F)C(F)(F)F)[C@H]3[C@@H]1CC[C@@H]2O` (some centres unmarked) [fulvestrant, Fulvestrant], the oral bioavailability result in data set [1] (po) was “close to zero”. The blood clearance rate entry in data set [1] is “high”. In addition, in the data set with breast cancer, the “breast cancer patients showing clinical response” value is on record as “about 50%”.
For the molecule `C#C[C@]1(O)CC[C@H]2[C@@H]3CCc4cc(O)ccc4[C@H]3CC[C@@]21C` [Ethinylestradiol, reference compound], in the data set on rat uterus, the Inhibition rate came out at 0%, the “Ratio of uterine wet weight/rat body weight” value came to 2.45 mg/g and the Uterine wet weight came to 132.2 mg.
Turning to `FCCCN1CC(Nc2cnc(C3=C(CC(F)(F)F)CCCc4c3ccc3[nH]nc(F)c43)cn2)C1` [Compound 8], the IC50 with MCF-7 cells is 0.7 nM; at CYP1A2, over 50000 nM; at CYP3A4 it was 42100 nM. For the same molecule, the DC50 at ERα is 0.37 nM.
Take `FCCCN1CC(Nc2cnc(C3=C(CC(F)(F)F)CCCc4c3ccc3[nH]ncc43)cn2)C1` [Compound 5]: the IC50 with MCF-7 cells is 0.19 nM. In addition, the DC50 at ERα is 0.017 nM.
